Test results: patent publication US20100104675A1, “Method Of Treating Demyelinating Central Nervous System Diseases” (priority 2008, published 2010)

How the values were obtained:
[1] = system: PLP139-151-immunized SJL mice (EAE); assay: Actively induced EAE in PLP139-151-immunized SJL/J mice, oral treatment; format: in vivo
[2] = system: rheumatoid arthritis patients; conditions: cited from earlier work
[3] = Example 2, Table 2, TwHF 12.5 mg/kg/d from day 0, triptolide 10 μg/kg/d from day 8, oral
[4] = Example 2, TwHF 12.5 mg/kg/d, triptolide 10 μg/kg/d, vs control

Row | Compound | Duration (mean duration of disease) [1, 3] | Group score (EAE clinical score 0-6) [1, 3] | Onset [1, 3] | reduction in the duration of the disease [1, 4] | reduction in the group score [1, 4] | ACR20 ([2]; 24 weeks of the Phase 2 trial) | patients with an ACR20 response ([2]; at 2 weeks)
1 | CC(C)[C@]12O[C@H]1[C@@H]1O[C@]13[C@]1(O[C@H]1C[C@H]1C4=C(CC[C@@]13C)C(=O)OC4)[C@@H]2O [Triptolide, triptolide] | 7.6 ± 1 days | 0.88 ± 0.09 | 13.9 ± 0.95 | 26.2% | 52.5% | – | –
2 | O=C(O)c1cc(/N=N/c2ccc(S(=O)(=O)Nc3ccccn3)cc2)ccc1O [sulfasalazine] | – | – | – | – | – | 21.3% | 9.8%
